Experimental findings from patent publication US10016408B2, “Chemokine CXCR4 receptor modulators and uses related thereto” (EMORY UNIVERSITY, priority 2010, dated 2018) are described below.

Like-named read-outs stand apart in the source and are kept apart here. A value given as a limit tells only on which side of the number the result lay.

The subject of one series is HIV-1 IIIB. In words: MAGI-CXCR4 HIV-1 IIIB antiviral assay (β-galactosidase reporter). Particulars: for inhibition at 1 µM: MAGI, read-out: MAGI HIV IIIB % Inhibition at 1 uM, 1 uM compound; for T.I. (TC50/IC50): therapeutic index, MAGI assay; for MAGI HIV IIIB % Inhibition at 1 uM: 1 uM compound. The source says: Example 2: MAGI-CXCR4 HIV-1 IIIB Assay Procedure
(§1) MAGI-CXC4 cells (obtained from the NIH AIDS Research and Reference Reagent Program) are passed into T-75 flasks prior to use in the antiviral assay. MAGI-CXCR4 cells are derived from HeLa-CD4-LTR-β-gal cells. The cells have been engineered to express high levels of CD4 and […] and contain one copy of the HIV-1 LTR promoter driving expression of the β-galactosidase gene upon HIV-1 Tat transactivation. On the day preceding the assay, the cells are plated at 1.0×10^4 per well and incubated at 37° C. overnight. Total cell and viability quantification is performed using a hemacytometer and trypan blue exclusion.
The virus used for these tests is the […](CXCR4-tropic strain HIV-1NL4-3 is also available for use). This virus was obtained from the NIH AIDS Research and Reference Reagent Program and was grown in Ghost Hi5/MAGI-CXCR4 co-cultures for the production of stock virus pools. For each assay, a pre-titered aliquot of virus is removed from the freezer (−80° C.) and allowed to thaw slowly to room temperature in a biological safety cabinet. The virus is re-suspended and diluted into tissue culture medium such that the amount of virus added to each well in a volume of […] is approximately ten TCID50/well (˜0.001 TCID50/cell).
(§2) Compounds are evaluated at one or two concentrations (e.g., for initial screening) or in dose-response at six concentrations (triplicate wells/concentration). On the day of assay setup, compound dilutions are prepared at two-times (2×) the final required concentrations. Media used for plating the cells the day before assay setup is aspirated from the plates and replaced with 50 μL of the 2× compounds, followed by the addition of 50 μL of virus, which dilutes the compounds to the final 1× concentrations. Cell control wells (cells only) and virus control wells (cells plus virus) are included on each assay plate. Identical uninfected assay plates (virus replaced with media) are prepared for parallel cytotoxicity testing. The cultures are incubated for 48 hours or 6 days (depending on compound or client requirements) after which antiviral efficacy is measured as the inhibition of β-galactosidase reporter expression and cytotoxicity is monitored by MTS staining.
A chemiluminescent endpoint is used to determine the extent of β-galactosidase expression as a measure of HIV-1 infection of the cells. Once HIV-1 has attached and entered the MAGI-CXCR4 cells, HIV-1 Tat transactivates the LTR dependent β-galactosidase enzyme to express higher than normal levels of β-galactosidase. Thus there is a direct relationship between the level of HIV-1 infection and the level of β-galactosidase detected in the cells. At 48 hours post infection, plates are aspirated and PBS is added to each well. Gal-screen reagent (Tropix, Bedford, Mass.) is then added per the manufacturer's instructions for chemiluminescent detection of β-galactosidase activity and incubated at room temperature for 90 minutes. The resulting chemiluminescence signal is then read using a Microbeta Trilux luminescence reader (PerkinElmer/Wallac).
(§3) At assay termination, the cytotoxicity assay plates are stained with the soluble tetrazolium-based dye MTS (CellTiter Reagent, Promega) to determine cell viability and quantify compound toxicity. […] At termination of the assay, 15 μL of MTS reagent is added per well. The microtiter plates are then incubated 1.5-2 hrs at 37° C.; the incubation interval was chosen based on empirically determined times for optimal dye reduction. The plates are read spectrophotometrically at 490/650 nm with a Molecular Devices Vmax plate reader. Percent inhibition of virus replication and percent cell viability at each concentration are calculated using an in-house computer program.

A short description of series [1]: in vitro. The conditions noted are these: human. As for the experimental part: (§4) To test efficacy of selected compounds, peripheral mononuclear cell assays are performed. Cells are infected for 6 days with live HIV IIIB virus and PBM cells are run in parallel for cytotoxicity testing, with or without selected agents. Efficacy of compounds as antagonists of the sdf-1 ligand to CXCR4 receptors was determined in I^125 labeled sdf-1 displacement assays from CXCR4-expressing CEM cells are performed.

The test system of the next series is HIV IIIB virus. The series is described as follows: Peripheral blood mononuclear cell HIV IIIB assay. The conditions noted are these: for IC50: read-out: PBMC-HIV IC50; for IC90: read-out: PBMC-HIV IC90; for T.I. (TC50/IC50): therapeutic index. On the procedure:
as §4

A short description of series [2]: in vitro. The conditions noted are these: human. As for the experimental part: as §1, §2, §3
This is another data set of the same source.

The test system of the next series is PBM cells. The series is described as follows: in vitro. As for the experimental part: as §4
Another series deals with MAGI-CXCR4 cells. The series is described as follows: in vitro. As for the experimental part: as §1, §2, §3
Setting [3] is: Human immunodeficiency virus 1, IIIB, MAGI-CXCR4 cells.
Where [4] appears, read: Human immunodeficiency virus 1, IIIB, PBMC, 144 h.
The mark [5] stands for this setting: Human immunodeficiency virus 1, IIIB, read-out: HIV IC90, MAGI-CXCR4 cells, further testing.
[6] abbreviates: PBMC infected 6 days with live HIV IIIB.
Where [7] appears, read: read-out: HIV IC90, MAGI-CXCR4 cells, further testing.
[8] abbreviates: read-out: HIV IC50, MAGI-CXCR4 cells, further testing.

The term inhibition denotes the share of the control response that was lost under treatment. Take `NCCCCN(C[C@@H]1CC(OCCCN)CN1C(=O)OCc1ccccc1)C1CCCc2cccnc21` (stereo partly drawn): the inhibition at 1 µM in the series with HIV-1 IIIB (setting [3]) is 0%.

Turning to `CN(C[C@@H]1CC(OCCCN)CN1C(=O)OCc1ccccc1)C1CCCc2cccnc21` (stereo partly drawn), the inhibition at 1 µM in the series with HIV-1 IIIB (setting [3]) was 0%.

For `NCCCCN(C[C@@H]1CC(OCc2ccccc2)CN1)C1CCCc2cccnc21` (stereo partly drawn), the inhibition at 1 µM in the series on HIV-1 IIIB (setting [3]) was 0%.

On to `NCCCCN(C[C@@H]1CC(c2ccccc2)CN1)C1CCCc2cccnc21` (stereo partly drawn), for which the inhibition at 1 µM with HIV-1 IIIB (setting [3]) is 20%.

Regarding `CN(CC1CN(Cc2ccccc2)CCN1)C1CCCc2cccnc21` (stereo not drawn), in the series on HIV-1 IIIB (setting [3]), the inhibition at 1 µM turned out to be 41%.

In the case of `CN(CC1Cc2ccccc2CN1)C1CCCc2cccnc21` (stereo not drawn), in the series with HIV-1 IIIB (setting [3]), the inhibition at 1 µM is 30%.

Regarding `O=C1c2ccccc2C(=O)N1CCCCN(CC1Cc2ccccc2CN1)C1CCCc2cccnc21` (stereo not drawn), the inhibition at 1 µM with HIV-1 IIIB (setting [3]) is 25%.

The term IC50 denotes the point on the concentration scale where inhibition reaches its midpoint. As usually defined, the IC90 is the point of the concentration-response curve where the effect stands at 90%. `c1cc(CN2CCCNCCNCCCNCC2)ccc1CN1CCCNCCNCCCNCC1` [AMD3100, reference compound]: the CC50 at 6 days in “in vitro [1]” is greater than 5000 nM. Moreover, the IC50 was 32 nM in the series with HIV IIIB virus (setting [4]) and 2 nM with HIV-1 IIIB (Human immunodeficiency virus 1, IIIB, read-out: HIV IC50, MAGI-CXCR4 cells, further testing). Besides, the IC90 turned out to be 134 nM in the series with HIV IIIB virus (setting [4]) and 7 nM in the series on HIV-1 IIIB (setting [5]). Further, the “T.I. (TC50/IC50)” value in the series with HIV IIIB virus (PBMC) is reported as greater than 150; in the series on HIV-1 IIIB it was greater than 5000. Further, the CC50 in the series “in vitro [2]” was greater than 10000 nM.

In the series with PBM cells, `Cc1cn([C@H]2C[C@H](N=[N+]=[N-])[C@@H](CO)O2)c(=O)[nH]c1=O` [AZT] returned a CC50 greater than 1000 nM. Moreover, in the series with HIV IIIB virus (setting [6]), the IC50 was 4 nM and the IC90 is 70 nM. Moreover, in the series on HIV IIIB virus (PBMC), the “T.I. (TC50/IC50)” value is greater than 240.

As to `NCCCCN(CC1CN(Cc2ccccc2)CCN1)C1CCCc2cccnc21` (stereo not drawn) [Compound 8], the “MAGI HIV IIIB % Inhibition at 1 uM” value with HIV-1 IIIB (MAGI-CXCR4 cells) stood at 95%. Moreover, in the series on HIV-1 IIIB (setting [7]), the 90% effect concentration (IC90) stood at 720 nM. Also, the “T.I. (TC50/IC50)” value with HIV-1 IIIB was greater than 67. This compound gave a CC50 in the series on MAGI-CXCR4 cells (human) greater than 10000 nM.

As to `NCCCCN(CC1CN(Cc2ccccc2)CCN1)C1CCCc2cccnc21` (stereo not drawn) [Compound 9], in the series on HIV-1 IIIB (setting [3]), the inhibition at 1 µM stood at 92%. In addition, in the series on HIV-1 IIIB (setting [5]), the IC90 is 440 nM. For the same compound, the IC50 in the series on HIV-1 IIIB (setting [8]) worked out at 30 nM; with HIV-1 IIIB (read-out: MAGI HIV IIIB IC50, MAGI-CXCR4 cells) it was 30 nM. Besides, the “T.I. (TC50/IC50)” value with HIV-1 IIIB is listed as greater than 333. For the same compound, in the series “in vitro [2]”, the CC50 is greater than 10000 nM.

For `Cc1ccc(-c2ccc3c(c2)C=C(C(=O)Nc2ccc(C[N+](C)(C)C4CCOCC4)cc2)CCC3)cc1` [TAK779, reference compound], in the series with HIV-1 IIIB (setting [8]), the IC50 is greater than 10000 nM. Moreover, the concentration for an effect of 90% (IC90) with HIV-1 IIIB (setting [7]) was greater than 10000 nM. Also, in the series on MAGI-CXCR4 cells (read-out: TC50, MTS staining, uninfected MAGI-CXCR4 cells), the CC50 is greater than 10000 nM.

`NCCCCN(CC1CCc2ccccc2N1)C1CCCc2cccnc21` (stereo not drawn) [drawing 40]: the inhibition at 1 µM with HIV-1 IIIB (setting [3]) was 42%.

In the case of `NCCCCN(CC1CCc2ccccc2N1)C1CCCc2cccnc21` (stereo not drawn) [drawing 41], the “MAGI HIV IIIB % Inhibition at 1 uM” value in the series on HIV-1 IIIB (MAGI-CXCR4 cells) is 31% @ 1 uM.

For the compound Maraviroc, in the series with HIV IIIB virus (setting [6]), the half-inhibitory concentration (IC50) was greater than 2000 nM and the IC90 was greater than 2000 nM.
